Assay results from US20250270180A1, “MEK INHIBITORS AND THERAPEUTIC USES THEREOF” (Immuneering Corporation, priority 2020, published 2025).

What was measured:
[1] = tested on: A549 (KRAS G12S) pERK: total ERK; test: Phospho-ERK screen in A549 (KRAS G12S); assay type: cell-based; details: 10 μM for 2 hours; for activity at 10 µM: Homo sapiens, A549, 2 h, read-out: pERK: total ERK (% relative to vehicle)
Protocol: Materials and Methods: A549 or A375 cells were seeded in 6-well plates at an appropriate seeding density on day 0. On day 2 or 3, after checking the health and confluency of cells, the media was aspirated and replaced with 1 mL media containing a predetermined concentration of compound and incubated for 2 hours. After 2 hours, the media was aspirated, and the cells washed 2 times with cold PBS. Cells were lysed on ice, with 50 uL 1×CST lysis buffer+1 mM PMSF for 5 minutes. After 5 minutes, cells were removed using a scraper and transferred to cold 1.5 mL tubes, and centrifuged for 10 min, 4° C., 14,000×g. Supernatant was gently removed and snap frozen in liquid nitrogen. Protein concentration of the lysate was determined using Bradford Reagent (analyzed using SpectraMax M2E) and diluted to 1 mg/mL or pERK or 1.5 mg/mL for pMEK analysis. Cell lysates were then analyzed for phosphor-ERK/total-ERK levels on a Jess system (ProteinSimple; Cat #JS3346) using the following antibodies: tERK1/2 (CST 4696; 1:50) and pERK1/2 (CST 4377; 1:50). For pMEK/tMEK, the following antibodies were used: tMEK1/2 (CST 4694; 1:15) and pMEK1/2 (CST 9154; 1:400). All dilutions were in Milk-free antibody diluent.
The results of a phospho-ERK Screen in A549 (KRAS G12S) study is described in Table 7, 7A, 7B, and 8 below.

A549 pERK = test: A549-pERK, 2 h (quantitative Western, Jess); assay type: cell-based; details: Homo sapiens, A549, 2 h, phospho:total ratio normalized to DMSO control; for activity at 0.01 µM: 10 nM
How it was run: (§1)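 Cells treated in duplicate for 2 h with compound, lysed and protein-normalised (1 mg/mL pERK, 1.5 mg/mL pMEK). Quantitative capillary Western; phospho/total protein ratio normalised to DMSO.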

CYP450 2C9 = CYP450 2C9 (Homo sapiens, UniProt P11712); test: CYP450 panel, 2C9; details: 10 μM; substrate Diclofenac
Plasma stability, human = assay type: in vitro ADME; details: 2 μM
[2] = Microsome stability, beagle dog; assay type: in vitro ADME; details: microsomes, 2 μM
[3] = Plasma stability, CD-1 mouse; assay type: in vitro ADME; details: 2 μM
CYP450 2B6 = molecular target: T1, CYP450 2B6 (Homo sapiens, UniProt P20813); test: CYP450 panel, 2B6; details: 10 μM; substrate bupropion
T1 sequence (P20813 1-491): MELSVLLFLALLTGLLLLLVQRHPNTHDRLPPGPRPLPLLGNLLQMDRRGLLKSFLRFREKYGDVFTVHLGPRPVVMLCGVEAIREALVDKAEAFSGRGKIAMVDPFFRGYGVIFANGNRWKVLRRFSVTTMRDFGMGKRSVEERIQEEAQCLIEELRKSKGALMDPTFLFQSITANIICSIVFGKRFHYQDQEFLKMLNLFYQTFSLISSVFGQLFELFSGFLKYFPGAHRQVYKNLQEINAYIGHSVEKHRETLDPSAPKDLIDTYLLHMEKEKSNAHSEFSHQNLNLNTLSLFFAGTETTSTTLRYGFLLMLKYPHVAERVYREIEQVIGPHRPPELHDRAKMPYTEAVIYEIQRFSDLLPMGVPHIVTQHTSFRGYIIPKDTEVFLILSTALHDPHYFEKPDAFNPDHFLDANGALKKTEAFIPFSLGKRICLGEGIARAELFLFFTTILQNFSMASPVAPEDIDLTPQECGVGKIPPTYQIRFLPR

CYP450 1A2 = molecular target: T2, CYP450 1A2 (Homo sapiens, UniProt P05177); test: CYP450 panel, 1A2; assay type: in vitro ADME; details: 10 μM; substrate phenacetin
T2 sequence (P05177 1-516): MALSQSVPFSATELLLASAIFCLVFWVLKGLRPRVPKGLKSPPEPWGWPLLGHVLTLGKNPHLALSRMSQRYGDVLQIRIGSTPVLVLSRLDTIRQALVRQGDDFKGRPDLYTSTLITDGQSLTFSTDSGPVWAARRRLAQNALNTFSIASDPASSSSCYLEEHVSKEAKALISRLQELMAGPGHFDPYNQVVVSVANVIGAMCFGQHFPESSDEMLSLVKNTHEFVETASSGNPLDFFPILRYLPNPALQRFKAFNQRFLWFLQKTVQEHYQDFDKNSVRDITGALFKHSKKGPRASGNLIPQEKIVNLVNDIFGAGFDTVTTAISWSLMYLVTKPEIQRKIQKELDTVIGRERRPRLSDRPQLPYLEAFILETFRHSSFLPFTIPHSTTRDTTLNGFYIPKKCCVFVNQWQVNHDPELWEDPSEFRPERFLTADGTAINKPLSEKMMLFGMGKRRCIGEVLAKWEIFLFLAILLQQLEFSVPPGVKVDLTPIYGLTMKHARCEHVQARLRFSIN

CYP450 3A4 = CYP450 3A4 (Homo sapiens, UniProt P08684); test: CYP450 panel, 3A4; details: 10 μM
[4] = Microsome stability, human; assay type: in vitro ADME; details: microsomes, 2 μM
CYP450 2C19 = CYP450 2C19 (Homo sapiens, UniProt P33261); test: CYP450 panel, 2C19; details: 10 μM; substrate mephenytoin
hERG Channel = hERG Channel (Homo sapiens, UniProt Q12809); test: in vitro
CYP450 2C8 = molecular target: T3, CYP450 2C8 (Homo sapiens, UniProt P10632); test: CYP450 panel, 2C8; details: 10 μM; substrate amodiaquine
T3 sequence (P10632 1-490): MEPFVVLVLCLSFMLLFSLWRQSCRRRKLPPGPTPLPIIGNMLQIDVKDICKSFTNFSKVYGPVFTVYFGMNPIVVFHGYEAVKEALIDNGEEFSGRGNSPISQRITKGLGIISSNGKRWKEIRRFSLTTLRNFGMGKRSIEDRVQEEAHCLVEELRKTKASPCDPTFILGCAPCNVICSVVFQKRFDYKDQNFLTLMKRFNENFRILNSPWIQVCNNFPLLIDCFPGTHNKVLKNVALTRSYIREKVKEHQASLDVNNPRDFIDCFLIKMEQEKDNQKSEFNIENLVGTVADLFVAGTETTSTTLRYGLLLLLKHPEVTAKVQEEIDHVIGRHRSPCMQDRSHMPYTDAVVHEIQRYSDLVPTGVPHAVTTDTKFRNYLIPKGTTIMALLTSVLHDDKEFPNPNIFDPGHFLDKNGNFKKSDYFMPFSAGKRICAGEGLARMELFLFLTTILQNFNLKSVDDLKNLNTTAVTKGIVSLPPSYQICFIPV

[5] = Plasma stability, beagle dog; assay type: in vitro ADME; details: 2 μM
[6] = Microsome stability, CD-1 mouse; details: microsomes, 2 μM
CYP450 2D6 = CYP450 2D6 (Homo sapiens, UniProt P10635); test: CYP450 panel, 2D6; details: 10 μM; substrate dextromethophan
[7] = tested on: A549 CRAF BP (MEK phosphorylation); test: A549-CRAF BP 100 nM, 2 h (pMEK); assay type: cell-based; details: Homo sapiens, A549, 2 h, phospho:total ratio normalized to DMSO control
How it was run: as §1

CYP450 3A4, sequence (P08684 whole entry): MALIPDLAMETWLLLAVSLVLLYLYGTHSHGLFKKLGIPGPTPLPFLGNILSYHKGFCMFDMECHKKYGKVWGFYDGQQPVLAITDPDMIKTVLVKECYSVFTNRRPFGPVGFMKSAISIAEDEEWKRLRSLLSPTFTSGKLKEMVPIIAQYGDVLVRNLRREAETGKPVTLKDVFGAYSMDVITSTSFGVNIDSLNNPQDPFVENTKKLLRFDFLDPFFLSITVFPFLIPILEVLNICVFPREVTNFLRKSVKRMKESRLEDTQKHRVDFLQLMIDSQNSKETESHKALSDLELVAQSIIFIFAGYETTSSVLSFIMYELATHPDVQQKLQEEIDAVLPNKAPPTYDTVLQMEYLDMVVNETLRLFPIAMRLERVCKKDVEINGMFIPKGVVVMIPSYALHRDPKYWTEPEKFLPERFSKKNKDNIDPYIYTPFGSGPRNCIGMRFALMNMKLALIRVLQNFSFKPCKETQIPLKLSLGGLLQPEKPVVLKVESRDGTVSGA
CYP450 2C19, sequence (P33261 whole entry): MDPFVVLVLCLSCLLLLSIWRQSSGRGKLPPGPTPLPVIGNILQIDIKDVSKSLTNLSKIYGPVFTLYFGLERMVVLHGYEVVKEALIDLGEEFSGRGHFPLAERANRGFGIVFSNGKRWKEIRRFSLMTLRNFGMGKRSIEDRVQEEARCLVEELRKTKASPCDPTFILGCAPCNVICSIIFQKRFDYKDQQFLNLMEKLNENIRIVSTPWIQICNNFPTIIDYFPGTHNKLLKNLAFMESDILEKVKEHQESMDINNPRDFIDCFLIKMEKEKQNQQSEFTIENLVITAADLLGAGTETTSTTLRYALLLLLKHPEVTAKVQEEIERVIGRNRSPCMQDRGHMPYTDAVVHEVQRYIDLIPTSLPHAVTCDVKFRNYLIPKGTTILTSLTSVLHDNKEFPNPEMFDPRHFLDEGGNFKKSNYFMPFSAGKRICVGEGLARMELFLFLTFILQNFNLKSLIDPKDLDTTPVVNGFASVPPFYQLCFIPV
CYP450 2D6, sequence (P10635 whole entry): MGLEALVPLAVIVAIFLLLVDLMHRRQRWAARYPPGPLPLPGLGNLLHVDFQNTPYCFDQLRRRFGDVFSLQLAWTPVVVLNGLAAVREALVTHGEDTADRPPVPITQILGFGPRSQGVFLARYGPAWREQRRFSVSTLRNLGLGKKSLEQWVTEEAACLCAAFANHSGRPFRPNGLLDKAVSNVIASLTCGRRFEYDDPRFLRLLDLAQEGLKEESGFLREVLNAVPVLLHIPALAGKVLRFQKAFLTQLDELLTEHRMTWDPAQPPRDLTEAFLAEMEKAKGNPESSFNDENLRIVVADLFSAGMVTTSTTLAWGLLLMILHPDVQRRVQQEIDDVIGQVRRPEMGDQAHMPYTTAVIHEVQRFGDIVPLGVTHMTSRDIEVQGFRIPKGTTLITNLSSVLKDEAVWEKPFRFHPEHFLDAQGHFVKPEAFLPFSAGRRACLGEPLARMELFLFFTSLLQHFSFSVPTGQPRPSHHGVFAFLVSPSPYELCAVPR
CYP450 2C9, sequence (P11712 whole entry): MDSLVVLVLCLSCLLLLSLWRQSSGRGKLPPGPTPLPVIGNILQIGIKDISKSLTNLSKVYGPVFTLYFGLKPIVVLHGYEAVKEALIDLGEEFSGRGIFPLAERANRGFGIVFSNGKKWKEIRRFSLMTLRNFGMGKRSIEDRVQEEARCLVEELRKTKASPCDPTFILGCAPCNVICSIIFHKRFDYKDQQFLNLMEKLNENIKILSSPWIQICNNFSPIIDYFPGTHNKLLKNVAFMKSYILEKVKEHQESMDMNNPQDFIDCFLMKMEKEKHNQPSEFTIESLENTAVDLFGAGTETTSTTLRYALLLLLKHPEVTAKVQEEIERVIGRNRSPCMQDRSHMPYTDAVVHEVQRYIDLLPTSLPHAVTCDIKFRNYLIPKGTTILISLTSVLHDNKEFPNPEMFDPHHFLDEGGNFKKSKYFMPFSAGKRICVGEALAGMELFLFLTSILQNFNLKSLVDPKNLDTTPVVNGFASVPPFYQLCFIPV
hERG Channel, sequence (Q12809 whole entry): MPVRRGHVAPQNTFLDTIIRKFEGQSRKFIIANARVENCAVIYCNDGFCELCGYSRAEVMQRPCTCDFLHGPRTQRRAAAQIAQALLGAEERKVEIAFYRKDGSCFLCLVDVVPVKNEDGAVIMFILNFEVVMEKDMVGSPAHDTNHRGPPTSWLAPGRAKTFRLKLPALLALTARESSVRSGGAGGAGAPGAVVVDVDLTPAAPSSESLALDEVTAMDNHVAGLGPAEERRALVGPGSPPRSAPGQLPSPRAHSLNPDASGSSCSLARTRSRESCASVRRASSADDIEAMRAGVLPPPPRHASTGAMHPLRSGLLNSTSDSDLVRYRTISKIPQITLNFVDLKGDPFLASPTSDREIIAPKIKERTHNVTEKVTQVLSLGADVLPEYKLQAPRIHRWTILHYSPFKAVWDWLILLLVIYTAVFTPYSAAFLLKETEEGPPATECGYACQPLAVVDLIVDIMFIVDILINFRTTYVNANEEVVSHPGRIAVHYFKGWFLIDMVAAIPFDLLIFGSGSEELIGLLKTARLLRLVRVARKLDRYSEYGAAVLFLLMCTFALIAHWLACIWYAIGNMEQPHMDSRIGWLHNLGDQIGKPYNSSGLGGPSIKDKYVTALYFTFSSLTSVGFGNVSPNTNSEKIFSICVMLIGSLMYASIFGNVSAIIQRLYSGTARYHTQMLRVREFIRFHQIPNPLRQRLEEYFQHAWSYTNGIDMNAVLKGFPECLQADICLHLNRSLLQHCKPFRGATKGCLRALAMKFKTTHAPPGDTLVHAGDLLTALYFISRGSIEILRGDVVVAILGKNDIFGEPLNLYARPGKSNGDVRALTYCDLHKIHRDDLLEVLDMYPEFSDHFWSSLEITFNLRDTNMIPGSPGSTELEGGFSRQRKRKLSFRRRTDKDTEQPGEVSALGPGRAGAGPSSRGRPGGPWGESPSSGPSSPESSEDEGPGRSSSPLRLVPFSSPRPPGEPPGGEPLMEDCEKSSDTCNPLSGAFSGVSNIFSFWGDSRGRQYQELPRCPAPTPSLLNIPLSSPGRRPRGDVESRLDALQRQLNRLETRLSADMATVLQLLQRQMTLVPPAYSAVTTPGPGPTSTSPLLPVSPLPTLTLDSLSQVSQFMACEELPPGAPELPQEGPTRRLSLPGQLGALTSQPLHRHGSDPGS

SMILES: CNS(=O)(=O)Nc1cccc(Cc2c(CNC(=O)OCCO)c3ccc(OC(=O)N(C)C)cc3oc2=O)c1F [Compound 185]
- pERK: total ERK (% relative to vehicle) [1]: 7.39%

SMILES: CNS(=O)(=O)Nc1cccc(Cc2c(CNC(=O)OCCO)c3ccc(OC(=O)N(C)C)cc3oc2=O)c1F [Compound 106]
- pERK: total ERK (% relative to vehicle) [1]: 27.88%
- activity at 10 µM (A549 pERK): 27.9%

SMILES: CNS(=O)(=O)Nc1cccc(Cc2c(CNCC(=O)N3CCNCC3)c3ccc(OC(=O)N(C)C)cc3oc2=O)c1F [Compound 191]
- activity at 10 µM [1]: 7.34%
- activity at 0.01 µM (A549 pERK): 131%
- activity at 10 µM (A549 pERK): 8.6%

SMILES: CNS(=O)(=O)Nc1cccc(Cc2c(C)c3ccc(OC(=O)N(C)C)cc3oc2=O)c1F [Compound 7]
- 2C9* (CYP450 2C9): 33.8
- Human (% Reamining @2 hour) (Plasma stability, human): 88.1%
- Beagle Dog (% Reamining @1 hour) [2]: 57.0%
- CD-1 Mouse (% Reamining @2 hour) [3]: 56.5%
- 2B6* (CYP450 2B6): 28.5
- 1A2* (CYP450 1A2): 0.3
- 3A4* (CYP450 3A4; substrate midazolam): 29.9
- 3A4^ (CYP450 3A4; substrate testosterone): 59.7
- Human (% Reamining @1 hour) [4]: 61.1%
- 2C19* (CYP450 2C19): 11.6
- IC50 (hERG Channel): 28.6 µM
- 2C8* (CYP450 2C8): 14.4
- Beagle Dog (% Reamining @2 hour) [5]: 99.8%
- CD-1 Mouse (% Reamining @1 hour) [6]: 29.6%
- 2D6* (CYP450 2D6): −7.4

SMILES: CNS(=O)(=O)Nc1cccc(Cc2c(CN3CCNCC3)c3cc(F)c(OC(=O)N(C)C)cc3oc2=O)c1F [Compound 134]
- activity at 10 µM [1]: 23.4%
- activity at 0.1 µM [7]: 26.9%
- activity at 0.01 µM (A549 pERK): 33.1%
